The values that follow come from patent US20090041839A1, “PHARMACEUTICAL COMPOSITIONS FOR THE TREATMENT OF PAIN” (priority 2007, published 2009).

Molecules are shown by their SMILES. Read-outs that look alike come from different tables or passages of the source.

One data set relates to adenosine A1 receptors. The note with it: Li et al. 2003, U.S. Pat. No. 6,248,774 and No. 6,489,356, cited from earlier work.
Data set [1] is described as follows: Multiple escalating dose pharmacokinetic study of T-62 soft gelatin capsules (Example 12). The class given is in vivo. The note with it: both sexes, human, plasma, healthy adults; for Tmax: median; for AUC(0-inf) / Cmax / AUC: po, arithmetic mean (SD); for AUC: τ = 12 hours, read-out: AUC0-τ. Here is the method:
A single-center, randomized, double-blind, parallel-group, placebo-controlled study of the safety, tolerability, and pharmacokinetics of escalating multiple doses of a T-62 composition in soft gelatin capsules (oral dosage form 4) in healthy adult male and female subjects was carried out.
Three cohorts of 12 subjects were enrolled for the study (19-38 years of age). Subjects in each cohort were randomly assigned in a 3:1 allocation to receive multiple doses of either T-62 (n=9) or placebo (n=3). Subjects in each cohort received study medication for a total of 6 days. Subjects in the first cohort received multiple doses of 100 mg T-62 or placebo. Subsequent cohorts of 12 new subjects each received multiple doses of placebo or a higher dose level of T-62 (i.e., 2×100 mg for the second cohort and 4×100 mg for the third cohort).
Each subject in each dosing cohort completed Screening, Baseline, Treatment, and Follow-Up Phases. The Screening Phase was conducted on an outpatient basis within 30 days, but no less than 3 days, prior to the start of the Baseline Phase. The Baseline Phase consisted of clinical research unit (CRU) admission and final qualification assessments. The Treatment Phase comprised of dosing, post-treatment safety assessments, and blood collection.
On the morning of Day 1, subjects received a single dose of study drug; no additional study drug were administered on Day 1. Twice-daily dosing (one morning dose and one evening dose) commenced on Day 2 and continue through Day 5. Subjects received a final dose of study drug on the morning of Day 6. Once subjects in each cohort had completed dosing, an additional 48 hours of blood sampling was conducted following the final dose to characterize the pharmacokinetics of T-62 at steady state. Subjects were discharged at the end of the 48-hour blood sampling (Day 8). The Follow-Up Phase occurred 2 days (but no more than 4 days) after discharge from the CRU.
For all cohorts, on Day 2 through Day 5, subjects were not allowed to eat any food beginning 1 hour prior to the morning and evening doses of study drug and until 2 hours after study drug administration. On Day 1 and Day 6, subjects fasted for a minimum of 9 hours pre-dose to 4 hours post-dose.
Blood samples for determining plasma concentrations of T-62 and pharmacokinetic parameters were obtained immediately prior to dosing on Day 1 and at regular intervals post-dosing over 12 hours in each treatment cohort. On Days 2-5, blood samples for pharmacokinetic analysis were collected each day prior to the morning and evening doses of study drug. Once subjects in each cohort had completed dosing on Day 6, an additional 48 hours of plasma sampling were conducted following the final dose of study drug to characterize the pharmacokinetics of T-62 at steady state.

The mark [2] stands for this setting: 200 mg, Day 1, single dose 2 × 100 mg (oral dosage form 4), n = 9.
Where [3] appears, read: 400 mg, Day 1, single dose 4 × 100 mg (oral dosage form 4), n = 9.
[4] abbreviates: 100 mg, Day 1, single dose 100 mg (oral dosage form 4), n = 8.
The mark [5] stands for this setting: 100 mg, Steady state (Day 6), 100 mg BID (oral dosage form 4), n = 8.
Where [6] appears, read: 200 mg, Steady state (Day 6), 2 × 100 mg BID (oral dosage form 4), n = 9.
Where [7] appears, read: 400 mg, Steady state (Day 6), 4 × 100 mg BID (oral dosage form 4), n = 9.

Take `Nc1sc2c(c1C(=O)c1ccc(Cl)cc1)CCCC2` [T-62, (2-amino-4,5,6,7-tetrahydrobenzo[b]thiophen-3-yl)(4-chlorophenyl)-methanone]: the Adverse side effects entry in the data set with adenosine A1 receptors (compared with administration of adenosine) is “devoid of the adverse side effects associated with administration of adenosine”. Moreover, the “Effect on inflammatory and neuropathic pain” value in the data set with adenosine A1 receptors (orally effective) is “reduce inflammatory and neuropathic pain”. In addition, the time of peak concentration (Tmax) in data set [1] (setting [2]) was 1 h; in data set [1] (setting [3]) it was 2 h; in data set [1] (Day 1, single dose 100 mg (oral dosage form 4), n = 8), 1 h. Also, the AUC(0-inf) is 96.9 ng·h/mL in data set [1] (setting [4]); 407 ng·h/mL in data set [1] (setting [5]); 254 ng·h/mL in data set [1] (setting [2]); 995 ng·h/mL in data set [1] (setting [6]); 496 ng·h/mL in data set [1] (setting [3]); 2210 ng·h/mL in data set [1] (setting [7]). In addition, the Cmax in data set [1] (setting [4]) was 28.8 ng/mL; in data set [1] (setting [5]), 55.9 ng/mL; in data set [1] (setting [2]), 60.7 ng/mL; in data set [1] (setting [6]), 107 ng/mL; in data set [1] (setting [3]), 71.4 ng/mL; in data set [1] (setting [7]), 179 ng/mL. Moreover, the AUC in data set [1] (setting [4]) was determined as 89.5 ng·h/mL; in data set [1] (setting [5]), 197 ng·h/mL; in data set [1] (setting [2]), 211 ng·h/mL; in data set [1] (setting [6]) it was 450 ng·h/mL; in data set [1] (setting [3]), 399 ng·h/mL; in data set [1] (setting [7]), 958 ng·h/mL.

In general, Tmax refers to the time from dosing to the highest level. The term AUC(0-inf) denotes total exposure, with the tail of the curve extrapolated. The term Cmax denotes the maximum level reached in the sampled fluid or tissue.
